According to patent US20230108408A1, “OXALAMIDE SUBSTITUTED HETEROCYCLIC COMPOUNDS AS MODULATORS OF THE ARYL HYDROCARBON RECEPTOR (AHR)” (PHENEX PHARMACEUTICALS AG, priority 2020, published 2023):

These compounds were tested against T1, AhR (Homo sapiens, UniProt P35869) (assay: AhR Direct Luciferase Reporter Assay in HepG2 Cells). Details: AhR antagonistic potency; HepG2 CYP1A1-Luc cells, 18 hours, no exogenous AhR agonist or 10 nM VAF347.
T1 construct: The HepG2 CYP1A1-Luc cells do express basal luciferase activity that can be increased via potent AhR agonists or decreased via potent AhR antagonists; endogenous in cells
T1 sequence (P35869 11-848): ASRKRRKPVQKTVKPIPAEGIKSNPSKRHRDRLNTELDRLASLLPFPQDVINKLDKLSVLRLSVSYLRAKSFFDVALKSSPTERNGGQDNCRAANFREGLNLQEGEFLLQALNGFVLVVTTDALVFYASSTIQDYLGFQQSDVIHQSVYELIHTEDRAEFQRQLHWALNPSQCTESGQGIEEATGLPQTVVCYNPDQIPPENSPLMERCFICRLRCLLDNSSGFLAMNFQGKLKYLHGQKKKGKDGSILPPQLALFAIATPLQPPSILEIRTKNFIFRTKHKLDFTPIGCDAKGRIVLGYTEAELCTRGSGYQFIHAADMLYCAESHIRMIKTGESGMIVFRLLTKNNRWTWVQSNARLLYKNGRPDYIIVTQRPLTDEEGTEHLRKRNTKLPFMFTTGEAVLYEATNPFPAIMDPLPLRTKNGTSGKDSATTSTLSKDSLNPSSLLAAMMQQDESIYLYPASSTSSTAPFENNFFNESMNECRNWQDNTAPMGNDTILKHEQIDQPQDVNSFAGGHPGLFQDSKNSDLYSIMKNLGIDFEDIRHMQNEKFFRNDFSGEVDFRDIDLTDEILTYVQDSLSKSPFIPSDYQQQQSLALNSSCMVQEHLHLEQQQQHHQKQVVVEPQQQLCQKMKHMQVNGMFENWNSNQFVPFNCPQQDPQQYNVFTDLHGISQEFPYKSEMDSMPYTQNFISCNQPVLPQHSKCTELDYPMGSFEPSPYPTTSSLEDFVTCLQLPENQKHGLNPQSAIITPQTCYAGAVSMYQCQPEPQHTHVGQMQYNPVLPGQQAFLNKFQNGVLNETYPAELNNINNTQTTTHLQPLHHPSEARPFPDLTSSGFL
Assay type: cell-based
Description: AhR Direct Luciferase Reporter Assay in HepG2 Cells.
A stable cell line (HepG2 CYP1A1-LUC) was used in which part of the promoter region of the human CYP1A1 gene is stably integrated into the genome of human HepG2 hepatocytes (DSZM #ACC 180) in front of a Photinus pyralis Firefly Luciferase gene. A 1210 bp fragment comprising part of the human CYP1A1 promoter was isolated via SacI and BgIII restriction digestion from Lightswitch Clone S714555 (SwitchGearGenomics) and inserted between the SacI and BgIII sites in pGL4.30 (Promega #E8481) in front of the Firefly Luciferase gene. The resulting vector was linearized with NotI, transfected into HepG2 cells (DSMZ #ACC 180) and stably transfected clones selected with 250 μg/ml Hygromycin B. After repetitive rounds of subcloning and testing for robustly regulated luciferase activity after AhR agonist stimulation, a stable clonal HepG2 CYP1A1-Luc cell line was selected.
The HepG2 CYP1A1-Luc cells do express basal luciferase activity that can be increased via potent AhR agonists or decreased via potent AhR antagonists, added to the growth medium of the cells.
In typical reporter assays performed with this cell line, cells are grown in 96-well plates and AhR modulators are titrated into the growth medium in serial dilutions in RPMI-1640 Medium (Sigma #R7509) supplemented with 8.6% fetal calf serum (Sigma #F7524) and containing either no exogenous AhR agonist or 10 nM of the potent AhR agonist VAF347 (Calbiochem #182690). Cells are further cultivated for 18 hours and luciferase activities are determined from extracts of cells in buffers containing D-Luciferine and ATP using a LUMIstar Optima microplate Luminometer from BMG Labtech.

IC50 [nM]	SMILES
< 100	CN(CC(F)(F)F)C(=O)C(=O)Nc1ccc2cc(-c3cc(C#N)ccc3C(F)(F)F)[nH]c2n1 [1/3]
< 100	N#Cc1ccc(C(F)(F)F)c(-c2cc3ccc(NC(=O)C(=O)N4CCCC4)nc3[nH]2)c1 [Example 1, N-(2-(5-Cyano-2-(trifluoromethyl)phenyl)-1H-pyrrolo[2,3-b]pyridin-6-yl)-2-oxo-2-(pyrrolidin-1-yl)acetamide]
100 to 1000	CC1(O)CN(C(=O)C(=O)Nc2ccc3cc(-c4cc(C#N)ccc4C(F)(F)F)[nH]c3n2)C1 [Example 2, N-(2-(5-Cyano-2-(trifluoromethyl)phenyl)-1H-pyrrolo[2,3-b]pyridin-6-yl)-2-(3-hydroxy-3-methylazetidin-1-yl)-2-oxoacetamide]
< 100	CC1CCN1C(=O)C(=O)Nc1ccc2cc(-c3cc(C#N)ccc3C(F)(F)F)[nH]c2n1 (stereo not shown) [1/6]
100 to 1000	N#Cc1ccc(C(F)(F)F)c(-c2cc3ccc(NC(=O)C(=O)N4CCC4)nc3[nH]2)c1 [1/7]
100 to 1000	N#Cc1ccc(C(F)(F)F)c(-c2cc3ccc(NC(=O)C(=O)N4CCOCC4)nc3[nH]2)c1 [1/1]
< 100	N#Cc1ccc(C(F)(F)F)c(-c2cc3ccc(NC(=O)C(=O)N4CCC5(CC5)C4)nc3[nH]2)c1 [1/5]
100 to 1000	N#Cc1ccc(C(F)(F)F)c(-c2cc3ccc(NC(=O)C(=O)NCc4ccccc4)nc3[nH]2)c1 [2/1, N^1-Benzyl-N^2-(2-(5-cyano-2-(trifluoromethyl)phenyl)-1H-pyrrolo[2,3-b]pyridin-6-yl)oxalamide]
> 1000	CN1CCN(C(=O)C(=O)Nc2ccc3cc(-c4cc(C#N)ccc4C(F)(F)F)[nH]c3n2)CC1 [1/2]
100 to 1000	COCCN(C)C(=O)C(=O)Nc1ccc2cc(-c3cc(C#N)ccc3C(F)(F)F)[nH]c2n1 [1/4]
